Structures can show the parent of a compound that is named as a salt. Marks after values point to notes of the source that are not given here.
Columns and labels:
STAT3-SH2 domain = target: T1, STAT3-SH2 domain (Homo sapiens, UniProt P40763); assay: AlphaScreen-based assay, STAT3-SH2 domain / pTyr peptide binding; conditions: for inhibition at 30 µM: a = mean of two experiments; for IC50: read-out: STAT3 IC50 (μM) ± SD
T1 construct: First, 75 nM of each SH2-containing protein was incubated with the test compound for 15 min

STAT1 = target: T2, STAT1 (Homo sapiens, UniProt P42224); assay: AlphaScreen-based assay, selectivity versus STAT1; format: binding; conditions: for IC50: read-out: STAT1 IC50 (μM) ± SD
T2 construct: First, 75 nM of each SH2-containing protein was incubated with the test compound for 15 min
T2 sequence (P42224 1-750): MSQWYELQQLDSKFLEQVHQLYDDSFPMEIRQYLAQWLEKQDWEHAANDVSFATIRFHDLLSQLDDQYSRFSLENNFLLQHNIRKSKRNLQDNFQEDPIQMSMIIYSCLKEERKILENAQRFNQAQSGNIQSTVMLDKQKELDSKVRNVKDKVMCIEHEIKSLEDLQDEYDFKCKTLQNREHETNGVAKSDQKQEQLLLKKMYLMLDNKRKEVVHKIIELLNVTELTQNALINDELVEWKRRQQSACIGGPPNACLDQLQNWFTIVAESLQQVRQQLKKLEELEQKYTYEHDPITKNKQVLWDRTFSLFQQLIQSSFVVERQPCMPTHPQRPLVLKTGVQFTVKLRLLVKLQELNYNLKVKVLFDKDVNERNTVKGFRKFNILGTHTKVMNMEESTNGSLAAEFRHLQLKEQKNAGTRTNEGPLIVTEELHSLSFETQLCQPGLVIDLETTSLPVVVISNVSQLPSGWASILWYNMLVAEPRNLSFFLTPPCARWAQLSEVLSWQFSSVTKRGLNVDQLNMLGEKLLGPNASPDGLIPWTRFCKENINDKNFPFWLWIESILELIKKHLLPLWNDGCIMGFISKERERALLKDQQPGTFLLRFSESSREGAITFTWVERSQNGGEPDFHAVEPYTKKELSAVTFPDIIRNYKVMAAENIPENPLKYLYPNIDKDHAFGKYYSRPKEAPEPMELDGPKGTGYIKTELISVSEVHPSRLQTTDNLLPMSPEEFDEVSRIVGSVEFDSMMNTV
Method: (§1) STAT3 inhibitory activity of the described compounds was tested by the AlphaScreen-based assay to evaluate the potential inhibition of the interaction between STAT3-SH2 domain and pTyr-containing peptides according to the previously reported procedure. For the most interesting compounds, selectivity tests versus STAT1 and Grb2 (Growth factor receptor-bound protein 2) were performed. AlphaScreen is a bead-based nonradioactive assay system for detecting biomolecular interactions in a microtiter plate format. Binding of biological partners brings donor and acceptor beads into close proximity and as result, a luminescent signal between 520 and 620 nm is produced. The AlphaScreen-based assays were typically performed in a final reaction volume of 25 μl of the assay buffer containing 10 mM HEPES–NaOH (pH 7.4), 50 mM NaCl, 1 mM EDTA (pH 8.0), 0.1% NP-40, and 10 ng/μl BSA in a 96-well microtiter plate at 25 °C. Phospho-Tyr (pTyr) peptide probes used in this study were 5-carboxyfluorescein (FITC)-GpYLPQTV for STAT3, FITC-GpYDKPHVL for STAT1, and FITC-PSpYVNVQN for Grb2. First, 75 nM of each SH2-containing protein was incubated with the test compound for 15 min. Each protein sample was then incubated for 90 min with 50 nM of its corresponding FITC-pTyr peptide, and mixed with streptavidin-coated donor beads and anti-FITC acceptor beads simultaneously before detection at 570 nm using EnVisonXcite (Perkin Elmer, Waltham, MA).

[1] = tested on: T3, Grb2 (Growth factor receptor-bound protein 2); assay: AlphaScreen-based assay, selectivity versus Grb2; format: binding; conditions: a = mean of two experiments
T3 construct: First, 75 nM of each SH2-containing protein was incubated with the test compound for 15 min
Method: as §1

HCT-116 cell line = assay: MTT assay, cytotoxicity on HCT-116 cell line; format: cell-based, human; conditions: for antiproliferative / cytotoxic activity on HCT-116 cell line (in words): 48 h treatment; for IC50: Homo sapiens, HCT-116, 48 h treatment, NA: not active up to 200 μM, read-out: HCT-116 IC50 (μM) ± SD
Method: The colorectal cancer HCT116 cells were cultured in McCoy’s media supplemented with penicillin (10,000 U/ml), streptomycin (10 mg/ml), nonessential amino acid, and 10% fetal calf serum (FCS). Cells were then seeded in 48 well plates and, after 24 h, they were incubated with different concentration of newly synthesized compounds dissolved in DMSO.
After 48 h of treatment, medium was removed from each well, and cells were incubated with fresh medium, containing 10% (v/v) of MTT (3-(4,5-dimethyl-2-thiazolyl)-2,5-diphenyl-2H-tetrazolium bromide) reagent. MTT, by interacting with vital cells mitochondria, is converted to formazan, with the development of visible purple crystals. After dissolving these crystals with isopropanol-HCl, the quantification of the conversion of MTT to formazan is determined through spectrophotometer analysis (595 nM), as previously described.

STAT3 homodimers = tested on: STAT3 homodimers; parameters: method as in PMID 17463090; conditions: read-out: IC50, blocked the formation of STAT3 homodimers; cited from earlier work

T1 sequence (P40763 whole entry, the tested form may be a part): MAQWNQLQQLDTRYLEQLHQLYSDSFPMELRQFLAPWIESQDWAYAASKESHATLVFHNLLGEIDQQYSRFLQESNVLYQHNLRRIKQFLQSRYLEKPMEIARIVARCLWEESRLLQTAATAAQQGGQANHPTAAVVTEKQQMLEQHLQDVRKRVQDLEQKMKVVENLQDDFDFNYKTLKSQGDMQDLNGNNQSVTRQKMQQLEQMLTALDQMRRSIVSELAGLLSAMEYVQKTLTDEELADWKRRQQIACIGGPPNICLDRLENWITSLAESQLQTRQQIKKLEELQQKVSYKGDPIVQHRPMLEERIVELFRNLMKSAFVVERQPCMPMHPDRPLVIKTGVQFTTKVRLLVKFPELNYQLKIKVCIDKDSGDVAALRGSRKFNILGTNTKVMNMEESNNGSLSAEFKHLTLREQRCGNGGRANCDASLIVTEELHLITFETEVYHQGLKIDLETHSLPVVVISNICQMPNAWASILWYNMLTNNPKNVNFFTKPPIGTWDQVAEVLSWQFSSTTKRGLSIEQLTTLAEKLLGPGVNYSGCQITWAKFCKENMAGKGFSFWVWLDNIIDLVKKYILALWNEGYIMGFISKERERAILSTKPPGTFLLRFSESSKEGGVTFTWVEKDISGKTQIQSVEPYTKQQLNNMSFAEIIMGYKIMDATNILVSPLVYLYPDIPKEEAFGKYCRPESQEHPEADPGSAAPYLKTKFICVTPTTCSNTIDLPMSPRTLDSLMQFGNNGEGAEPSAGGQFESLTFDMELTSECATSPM

CC(=O)Oc1ccccc1C(=O)O [ASA, acetyl salicylic acid, reference compound]
inhibition at 30 µM (STAT3-SH2 domain): 3.8 ± 1.9% | IC50 (STAT3-SH2 domain): > 30 µM | inhibition at 30 µM (STAT1): 6.3 ± 1.7% | IC50 (STAT1): > 30 µM

CCCC(CCC)C(=O)OCCSS(C)(=O)=O [Compound 1, 2-((Methylsulfonyl)thio)ethyl 2-propylpentanoate]
inhibition at 3 µM (STAT3-SH2 domain): 101 ± 2.2% | inhibition at 30 µM (STAT3-SH2 domain): 102% | IC50 (STAT3-SH2 domain): 0.7 ± 0.1 µM | inhibition at 3 µM (STAT1): 44.9 ± 10.5% | IC50 (STAT1): > 3 µM | Grb2 % Inhibition 3 μM [1]: 76.0^a % | antiproliferative / cytotoxic activity on HCT-116 cell line (in words) (HCT-116 cell line): moderate antiproliferative activity | IC50 (HCT-116 cell line): 136 ± 2.2 µM

CCCC(CCC)C(=O)NCCSS(C)(=O)=O [Compound 2, S-(2-(2-propylpentanamido)ethyl) methanesulfonothioate]
inhibition at 3 µM (STAT3-SH2 domain): 67.2 ± 11% | inhibition at 30 µM (STAT3-SH2 domain): 106% | IC50 (STAT3-SH2 domain): 1.4 ± 0.1 µM | inhibition at 3 µM (STAT1): 1.9 ± 2.2% | IC50 (STAT1): > 3 µM | Grb2 % Inhibition 3 μM [1]: −23.3^a % | antiproliferative / cytotoxic activity on HCT-116 cell line (in words) (HCT-116 cell line): inefficacious at concentration up to 100–200 μM

CC1=C(CC(=O)OCCSS(C)(=O)=O)c2cc(F)ccc2/C1=C\c1ccc([S+](C)[O-])cc1 (centres unmarked) [Compound 3, (Z)-5-fluoro-2-methyl-1-[[4-(methylsulfinyl)phenyl]methylene]-1H-indene-3-acetic acid 2-methanesulfonylsulfanylethyl ester]
inhibition at 3 µM (STAT3-SH2 domain): 105 ± 8.2% | inhibition at 30 µM (STAT3-SH2 domain): 102% | IC50 (STAT3-SH2 domain): 0.5 ± 0.1 µM | inhibition at 3 µM (STAT1): 46.7 ± 1.1% | IC50 (STAT1): > 3 µM | Grb2 % Inhibition 3 μM [1]: 74.6^a % | antiproliferative / cytotoxic activity on HCT-116 cell line (in words) (HCT-116 cell line): moderate antiproliferative activity | IC50 (HCT-116 cell line): 104 ± 10.9 µM

CC(=O)Oc1ccccc1C(=O)OCCSS(C)(=O)=O [Compound 4, 2-Acetoxybenzoic acid 2-methanesulfonylsulfanyl-ethyl ester]
inhibition at 3 µM (STAT3-SH2 domain): 93.5 ± 2.6% | inhibition at 30 µM (STAT3-SH2 domain): 100 ± 0.1% | IC50 (STAT3-SH2 domain): 1.4 ± 0.1 µM | inhibition at 3 µM (STAT1): 44.2 ± 0.8% | inhibition at 30 µM (STAT1): 99.8 ± 0.4% | IC50 (STAT1): 3.6 µM | Grb2 % Inhibition 3 μM [1]: 15.9^a % | antiproliferative / cytotoxic activity on HCT-116 cell line (in words) (HCT-116 cell line): moderate antiproliferative activity | IC50 (HCT-116 cell line): 87.9 ± 11.4 µM

CS(=O)(=O)SCCOC(=O)Cc1ccccc1Nc1c(Cl)cccc1Cl [Compound 5, 2-((methylsulfonyl)thio)ethyl 2-(2-((2,6-dichlorophenyl)amino)phenyl)acetate]
inhibition at 3 µM (STAT3-SH2 domain): 110 ± 2.2% | inhibition at 30 µM (STAT3-SH2 domain): 102% | IC50 (STAT3-SH2 domain): 0.5 ± 0.2 µM | inhibition at 3 µM (STAT1): 35.4 ± 2.1% | IC50 (STAT1): > 3 µM | Grb2 % Inhibition 3 μM [1]: 77.8^a % | antiproliferative / cytotoxic activity on HCT-116 cell line (in words) (HCT-116 cell line): inefficacious at concentration up to 100–200 μM

Cc1ccc(S(=O)(=O)SCC(=O)Nc2ccc(C(=O)O)c(O)c2)cc1 [Compound 6, 2-Hydroxy-4-(2-(tosylthio)acetamido)benzoic acid]
inhibition at 3 µM (STAT3-SH2 domain): 46 ± 0.8% | inhibition at 30 µM (STAT3-SH2 domain): 58.4 ± 1.1% | IC50 (STAT3-SH2 domain): 4.9 ± 0.4 µM | inhibition at 3 µM (STAT1): 18 ± 0.2% | inhibition at 30 µM (STAT1): 39.6 ± 0.8% | IC50 (STAT1): > 30 µM | IC50 (HCT-116 cell line): > 200 µM

CS(=O)(=O)CSC(=O)c1ccc(N)cc1O [Compound 8, S-((methylsulfonyl)methyl) 4-amino-2-hydroxybenzothioate]
inhibition at 30 µM (STAT3-SH2 domain): 41.8 ± 0.9% | inhibition / binding of STAT3-SH2 domain (in words) (STAT3-SH2 domain; highest concentration tested 30 μM): moderately inhibited | IC50 (STAT3-SH2 domain): > 30 µM | antiproliferative / cytotoxic activity on HCT-116 cell line (in words) (HCT-116 cell line): good cytotoxic activity | IC50 (HCT-116 cell line): 26.3 ± 11.6 µM

CS(=O)(=O)SCCO [Compound 9, S-(2-hydroxyethyl) methanesulfonothioate, reference compound]
IC50 (STAT3-SH2 domain): > 30 µM

CS(=O)(=O)SCCN [Compound 10, S-(2-aminoethyl) methanesulfonothioate, reference compound]
IC50 (STAT3-SH2 domain): > 3 µM | IC50 (STAT1): > 3 µM | Grb2 % Inhibition 3 μM [1]: 12.3^a %

Cc1ccc(S(=O)(=O)OCC(=O)Nc2ccc(C(=O)O)c(O)c2)cc1 [Compound S3I-301, reference compound]
inhibition at 30 µM (STAT3-SH2 domain): 7.2 ± 1.7% | IC50 (HCT-116 cell line): 39.5 ± 7.7 µM | IC50 (STAT3 homodimers): 86 µM

O=C(O)Cc1ccccc1Nc1c(Cl)cccc1Cl [Diclofenac sodium salt, reference compound]
inhibition at 30 µM (STAT3-SH2 domain): 4.5 ± 2.4% | IC50 (STAT3-SH2 domain): > 30 µM | inhibition at 30 µM (STAT1): 6.5 ± 2.1% | IC50 (STAT1): > 30 µM

CC1=C(CC(=O)O)c2cc(F)ccc2/C1=C\c1ccc([S+](C)[O-])cc1 (centres unmarked) [Sulindac, sulindac, reference compound]
inhibition at 30 µM (STAT3-SH2 domain): 4.2 ± 3.2% | IC50 (STAT3-SH2 domain): > 30 µM | inhibition at 30 µM (STAT1): 4.9 ± 2% | IC50 (STAT1): > 30 µM

CCCC(CCC)C(=O)O [VA, valproic acid, reference compound]
inhibition at 30 µM (STAT3-SH2 domain): 0.2 ± 3.2% | IC50 (STAT3-SH2 domain): > 30 µM | inhibition at 30 µM (STAT1): 2.7 ± 3% | IC50 (STAT1): > 30 µM

Reference: publication PMC6009886, “Methanethiosulfonate derivatives as ligands of the STAT3-SH2 domain” (Journal of Enzyme Inhibition and Medicinal Chemistry, 2017)
